{"source": "patent US20250313862A1", "about": "“INHIBITION OF GENOTOXIC STRESS TO IMPROVE T CELL ENGINEERING” (GENENTECH, INC., priority 2022, published 2025)", "key": {"[1]": {"test_system": "human primary CD8+ T cells", "assay": "T cell viability 48 h post transfection (NucleoCounter NC-200)", "format": "cell-based", "conditions": "for culture viability improvement compared to the untreated control group (CTR): 6 h pretreatment prior to transfection, 48 h-post transfection, on average (FIG. 6A)", "experimental": "(§1) Peripheral blood mononuclear cells (PBMCs) were isolated from human cryopreserved leukopak using Ficoll gradient centrifugation ([…], 25 min). All samples were obtained from healthy donors genotyped with HLA A*02:01 MHC class I complex. Then CD8+ T cells were isolated using the Miltenyi AutoMACS cell separator according to the manufacturer's protocol. Isolated CD8+ T cells were then mixed with Miltenyi T cell TransACT reagent (1:100) (Catalog #130-111-160), 25 ng/mL IL-7 (Catalog #130-095-367), and 50 ng/mL IL-15 (Catalog #130-095-760) in Fuji Prime-XV medium (IrvineScientific Catalog #91154) for 48 h for activation.\n(§2) Cells were electroporated with the 4D-Nucleofector System (Lonza) according to the manufacturer's protocol. After activation and inhibitor treatment, 10×10^6 (or 10 million) CD8+ T cells were washed and resuspended with Lonza P3 primary cell nucleofector solution (Catalog #V4XP-3024) and then mixed with pre-mixed RNP and DNA plasmid before transferring to Lonza 100-uL cuvette. After electroporation, 400 ul of FUJI Prime-XV medium was added to the cuvette and incubated for 15 min before seeding cells in culture flask. Pulse code used in this manuscript is EH115 for all circumstances.\n(§3) All inhibitors were purchased from invivogen. Unless stated otherwise, cells were cultured with Fuji Prime-XV medium with 25 ng/ml IL-7 and 50 ng/ml IL-15 (Complete medium). After electroporation, T cells were carefully transferred to 24-well gREX (Wilsonwolf, Catalog: 80192M) at 1-2 million cells/cm^2 seeding density. 8 ml of complete medium were added per well and 50% of the medium was exchanged 6 days later. Cells were incubated at 37° C. and 5% CO2. The NucleoCounter NC-200 automated cell counter with the Via2-Casette were used in this study for cell counting and viability analysis.\n(§4) Two days post activation, CD8+ T cells were washed and resuspended with FUJI Prime-XV complete medium containing inhibitors at the indicated concentrations for 6 h. After treatment, cells were washed and resuspended in Lonza P3 buffer prior to electroporation. Post transfection, T cells were cultured with FUJI Prime-XV complete medium without inhibitor."}, "[2]": {"test_system": "human primary CD8+ T cells", "assay": "T cell expansion fold of final cell product, 15-day T cell engineering process", "format": "cell-based", "conditions": "for cell expansion of final T cell product: day 15, average", "experimental": "as §1, §2, §3, §4"}, "[3]": {"test_system": "human primary CD8+ T cells", "assay": "Total edited cell (TEC) number in final drug product", "format": "cell-based", "conditions": "for TEC number: seeding 2 million cells, day 15, on average (FIG. 6C)", "description": "The total edited cell number (TECs) in the final drug product is arguably the most important metric for the adoptive cell transfer (ACT) and this, among a few other conditions, is considered one of the most important criteria for cell therapy purpose since it is expected to translate to the therapeutic impact in the clinic. Using the total cell number of the final cell product on day 15 multiplied by the percentage of knock-in, we get the TECs that are representative of our T cell engineering and culture output. With a starting seeding density of 2 million cells and without inhibitor treatment, as shown for the control conditions (CTR), the TEC numbers were approximately 5.24 million on average (FIG. 6C). However, when T cells were pre-treated with the indicated inhibitors, a significant increase in the output of TECs in all donors were observed (FIGS. 4C, 4F, 4I, FIGS. 5C, 5F), which was consistent with the cell expansion data.\nas §2, §3\n(§5) Dextramer antibodies for knock-in analysis were purchased from Immudex (Catalog: WB3469-PE, WT1) and used following manufacturer's protocol. Surface staining, CFSE staining, 7-AAD/annexin V staining, and intracellular staining were performed as previously described. Samples were analyzed using the BD FACSLyric flow cytometer (BD Biosciences) and FlowJo v10 software. For proliferation and cell killing assay, data were corrected by a negative control or target cell-only control.\nas §4"}, "[4]": {"test_system": "human primary CD8+ T cells", "assay": "Knock-in/knock-out efficiency by flow cytometry (MHC-peptide dextramer and TCR staining)", "format": "cell-based", "experimental": "as §2, §5, §4"}, "IRF3": {"test_system": "IRF3", "assay": "Western blot analysis of IRF3 phosphorylation post transfection", "format": "cell-based, human", "conditions": "pre-treatment at both medium and high concentrations (FIG. 8A)", "experimental": "(§6) T cell pellets were collected, washed and stored as frozen pellets in −80° C. until use. Cell pellet processing, western blot experiments and data analysis were performed as previously described (Tang, J B C, 2020).\nas §4"}, "TBK1 [5]": {"test_system": "TBK1", "assay": "Western blot analysis of TBK1 phosphorylation post transfection", "format": "cell-based, human", "conditions": "post BX795 pre-treatment (FIG. 8A)", "experimental": "as §6, §4"}, "[6]": {"test_system": "type 1 interferons (IFNa, IFNB) and proinflammatory cytokine (IL-6)", "assay": "Cytokine expression by qPCR 6 h post transfection", "format": "cell-based, human", "experimental": "(§7) RNeasy Mini Kit (Cat. #74106) was purchased from Qiagen. TaqMan RNA-to-CT 1-Step Kit (Cat. #4392938) and Taqman primer-probe assays with reporter dye FAM and MGB quenchers were purchased from Thermo Fisher (assay information listed in Table 4). After RNA isolation, 2 ng RNA was mixed with Taqman primer-probe mix, TaqMan RNA-to-CT 1-Step master mix, and RT enzyme mix in a 10 uL qPCR system according to the manufacturer's protocol. Reaction readings were measured using QuantStudio 6 Flex machine and data was analyzed using QuantStudio Real-Time PCR software v1.2. PCR cycling conditions were 50° C. for 30 min, 95° C. for 10 min, 40× cycles of 95° C. for 15 s, 60° C. for 1 min. All data points were collected in triplicates, using RNA18S as internal control (sample ID: #Hs03928990_g1).\nas §4"}, "cGAS-STING pathway": {"test_system": "cGAS-STING pathway", "assay": "cGAS-STING pathway activation in T cells (western blot and qPCR)", "format": "cell-based, human", "conditions": "pretreatment prior to transfection (FIG. 8A); hydrochloride", "experimental": "as §6, §7, §4"}, "[7]": {"test_system": "human primary CD8+ T cells", "assay": "T cell phenotype of final T cell product by flow cytometry (TSCM, TCM, TEM, TE)", "format": "cell-based", "conditions": "pre-treatment prior to transfection; day 15; different donors; hydrochloride", "experimental": "as §5, §4"}, "[8]": {"test_system": "human primary CD8+ T cells", "assay": "T cell activation and cytokine expression after 24 h WT1 peptide pulse (flow cytometry)", "format": "cell-based", "conditions": "day 15 cells pulsed 24 h with WT1 peptide", "experimental": "The cGAS-STING pathway is crucial in detecting and neutralizing genotoxic stress. It is a main component of innate immune system that can trigger inflammation in response to cytosolic DNA detection. […] Harvested T cells from inhibitor treated and control groups were pulsed for 24 h with indicated concentrations of a specific peptide (WT1), which binds to the engineered TCR. […] Another major concern is the exhaustion of the engineered T cell cultures. To measure levels of T cell exhaustion, the expression of exhaustion markers, such as Tim3 and PD-1, was evaluated.\nas §5"}, "[9]": {"test_system": "human primary CD8+ T cells", "assay": "CFSE proliferation analysis, 72 h co-culture with WT1 peptide", "format": "cell-based", "conditions": "day 15 cells, WT1 peptide 72 h", "experimental": "We next investigated proliferation of T cell after treatment with BX795. The final T cell product obtained from BX795 pre-treated or untreated groups were labeled with CFSE far-red, and co-cultured with WT1 peptide at the indicated concentrations for 72 h. […] T cells treated with higher concentration of WT1 peptide achieved high (˜60%) proliferation rates, implying the strong and antigen specific proliferation of the final T cell product. Finally, we compared T cells isolated from BX795 pre-treated as well as untreated control cultures in a target cell killing assay. Target cells T2 (T) were labeled with CFSE-far red, and then pulsed with 20 uM WT1 peptide before co-incubation with our final T cell product (E) at a ratio dependent manner. […] Of note, compared with the CTLs raised from conventional vaccine strategies, our T cells achieved high killing efficiency with much lower E:T ratio [19, 20], outlining the potential advantage of antigen-specific tumor cell killing of our TCR engineered T cells.\nDextramer antibodies for knock-in analysis were purchased from Immudex (Catalog: WB3469-PE, WT1) and used following manufacturer's protocol. Surface staining, CFSE staining, 7-AAD/annexin V staining, and intracellular staining were performed as previously described. Samples were analyzed using the BD FACSLyric flow cytometer (BD Biosciences) and FlowJo v10 software. […]"}, "TBK1 [10]": {"test_system": "TBK1", "conditions": "previous report [9]; cited from earlier work"}, "[11]": {"conditions": "BX795-M (mid dosage 2.5 uM), day 15"}}, "note": "Entries after “also recorded” stand apart in the source; their conditions may differ. Structures can show the parent of a compound that is named as a salt.", "data": [{"smiles": "CC(C)c1ccc2oc3nc(N)c(C(=O)O)cc3c(=O)c2c1", "note": "[Aml, 2-amino-5-oxo-7-propan-2-ylchromeno[2,3-b]pyridine-3-carboxylic acid]", "values": [{"measurement": "culture viability improvement compared to the untreated control group (CTR)", "setting": "[1]; 25 uM", "result": "about 2 fold"}, {"measurement": "cell expansion of final T cell product", "setting": "[2]; 25 uM pre-treatment", "result": 14.5, "unit": "fold"}, {"measurement": "average increase in TECs compared to the control group", "setting": "[3]; 25 uM pre-treatment", "result": 267.0, "unit": "%"}, {"measurement": "TEC number", "setting": "[3]; 25 uM pre-treatment", "result": 14.7, "unit": "million"}]}, {"smiles": "O=C(NCCCNc1nc(Nc2cccc(NC(=O)N3CCCC3)c2)ncc1I)c1cccs1", "note": "[BX795, N-[3-[[5-iodo-4-[[3-[(2-thienylcarbonyl)amino]propyl]amino]-2-pyrimidinyl]amino]phenyl]-1- Pyrrolidinecarboxamide hydrochloride]", "values": [{"measurement": "culture viability improvement compared to the untreated control group (CTR)", "setting": "[1]; 5 uM", "result": "about 2 fold"}, {"measurement": "% viability", "setting": "[1]; 48 h post transfection, same donor as FIG. 8A (FIG. 8B)", "result": "higher % viability"}, {"measurement": "effectiveness in improving culture viability and growth among tested inhibitors", "setting": "[1]; at 2.5 uM and 5 uM", "result": "most effective"}, {"measurement": "cell expansion of final T cell product", "setting": "[2]; 5 uM pre-treatment", "result": 20.3, "unit": "fold"}, {"measurement": "T cell expansion rate", "setting": "[2]; day 15, same donor as FIG. 8A (FIG. 8C)", "result": "increased T cell expansion rate"}, {"measurement": "inhibitor performance by electroporation pulse code", "setting": "[2]; pulse code EH115 vs other pulse codes", "result": "performs better in EH115 groups"}, {"measurement": "average increase in TECs compared to the control group", "setting": "[3]; 2.5 uM pre-treatment", "result": 303.4, "unit": "%"}, {"measurement": "TEC number", "setting": "[3]; 2.5 uM pre-treatment", "result": 21.1, "unit": "million"}, {"measurement": "TEC numbers", "setting": "[3]; day 15, same donor as FIG. 8A", "result": "improved TEC numbers"}, {"measurement": "improvement in TEC compared to the control group", "setting": "[3]; mid or high concentrations (2.5 uM and 5 um), statistically significant", "result": "more than 3 fold"}, {"measurement": "exogenous TCR expression (knock-in) over the culture process vs control group", "setting": "[4]; 2.5 uM pre-treated, day 4 to day 15 (FIG. 14B, 14C), hydrochloride", "result": "increases exogenous TCR expression; also recorded: enhances cell editing efficiency (knock-in)"}, {"measurement": "knock-out efficiency in final cell product", "setting": "[4]; BX795-H (high dosage 5 uM), day 15", "result": 83.5, "unit": "%"}, {"measurement": "knock-in ratio in final cell product", "setting": "[4]; [11]", "result": 61, "unit": "%"}, {"measurement": "knock-out efficiency in final cell product", "setting": "[4]; [11]", "result": 86.7, "unit": "%"}, {"measurement": "KI/KO ratio", "setting": "[4]; day 15, same donor as FIG. 8A", "result": "equal or better KI/KO ratio"}, {"measurement": "phosphorylation of IRF3 post transfection", "setting": "IRF3", "result": "attenuated phosphorylation of IRF3"}, {"measurement": "TBK1 phosphorylation", "setting": "TBK1 [5]", "result": "not attenuated and was actually enhanced"}, {"measurement": "levels of type 1 interferons (IFNa, IFNB)", "setting": "[6]; BX795 removed prior to transfection", "result": "did not show a significant decrease"}, {"measurement": "downstream cytokine expression (IFNa, IFNB, IL-6)", "setting": "[6]; pre-treatment, 6 h post transfection (FIG. 8F)", "result": "reduced"}, {"measurement": "cGAS/STING pathway activation", "setting": "cGAS-STING pathway", "result": "considerable reduction in cGAS/STING pathway activation; also recorded: attenuates T cell cGAS-STING pathway"}, {"measurement": "T cell phenotype of final T cell product vs untreated control", "setting": "[7]", "result": "no impact on the final T cell product phenotype"}, {"measurement": "activation profile (CD137, IFNg, TNFa, Granzyme B expression) vs untreated control", "setting": "[8]", "result": "comparable activation profile"}, {"measurement": "T cell proliferation in response to antigen specific stimulation vs untreated", "setting": "[9]", "result": "comparable"}, {"measurement": "enhancement in TBK1 phosphorylation", "setting": "TBK1 [10]", "result": 2, "unit": "fold"}]}, {"smiles": "O=C(NCCCNc1nc(Nc2cccc(CN3CCOCC3)c2)ncc1C1CC1)C1CCC1", "note": "[MRT, N-[3-[[5-cyclopropyl-2-[3-(morpholin-4-ylmethyl)anilino]pyrimidin-4-yl]amino]propyl] cyclobutanecarboxamide]", "values": [{"measurement": "culture viability improvement compared to the untreated control group (CTR)", "setting": "[1]; 2.5 uM", "result": "about 2 fold"}, {"measurement": "cell expansion of final T cell product", "setting": "[2]; 5 uM pre-treatment", "result": 17.2, "unit": "fold"}, {"measurement": "average increase in TECs compared to the control group", "setting": "[3]; 5 uM pre-treatment", "result": 180, "unit": "%"}, {"measurement": "TEC number", "setting": "[3]; 5 uM pre-treatment", "result": 17.4, "unit": "million"}]}]}
